Measurements: ChEMBL document CHEMBL3124766, “Metabolomics Reveal d-Alanine:d-Alanine Ligase As the Target of d-Cycloserine in Mycobacterium tuberculosis” (ACS Med Chem Lett, 2013)
The source made the active and inactive calls. The calls are words filed in the database; no cut-off is given here.

Experiments:
[1] = system: Mycobacterium tuberculosis; assay: Reduction in intracellular dipeptide D-alanyl-D-alanine pool size in Mycobacterium tuberculosis H37Rv up to 5 times MIC by filter-based mass spectrometry technique; type: functional, organism-based
[2] = Drug metabolism in Mycobacterium tuberculosis H37Rv assessed as compound remaining at 0.25 to 5 times MIC for 16 hrs measured 15 to 60 mins post compound washout; type: ADME, organism-based; settings: Mycobacterium tuberculosis H37Rv cells, read-out: Stability
[3] = system: Mycobacterium tuberculosis; assay: Ratio of MIC for Mycobacterium tuberculosis H37Rv in presence of D-Alanine to MIC for Mycobacterium tuberculosis H37Rv; type: functional
[4] = target: T1, D-alanine--D-alanine ligase (Mycobacterium tuberculosis) (UniProt P9WP31); assay: Competitive inhibition of D-alanine-D-alanine ligase in Mycobacterium tuberculosis H37Rv at MIC preincubated for 16 hrs followed by D-Ala-[2H] addition measured over 8 hrs by LC-MS/MS analysis
T1 sequence (whole entry): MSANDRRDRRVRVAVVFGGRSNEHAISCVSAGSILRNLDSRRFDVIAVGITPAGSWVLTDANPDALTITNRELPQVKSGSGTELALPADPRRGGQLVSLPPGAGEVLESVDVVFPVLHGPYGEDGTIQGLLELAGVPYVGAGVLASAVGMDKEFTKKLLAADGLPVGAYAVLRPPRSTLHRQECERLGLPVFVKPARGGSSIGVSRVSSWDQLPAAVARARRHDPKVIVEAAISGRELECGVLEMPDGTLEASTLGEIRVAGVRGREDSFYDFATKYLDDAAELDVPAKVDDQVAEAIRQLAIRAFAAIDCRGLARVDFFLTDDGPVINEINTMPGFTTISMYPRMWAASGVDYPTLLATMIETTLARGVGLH

[5] = target: T2, Alanine racemase (Mycobacterium tuberculosis) (UniProt P9WQA9); assay: Inhibition of alanine racemase in Mycobacterium tuberculosis H37Rv at 5 times MIC preincubated for 16 hrs followed by compound re-addition with L-Ala-[13C]-[3H] measured over 8 hrs by LC-MS/MS analysis
T2 sequence (whole entry): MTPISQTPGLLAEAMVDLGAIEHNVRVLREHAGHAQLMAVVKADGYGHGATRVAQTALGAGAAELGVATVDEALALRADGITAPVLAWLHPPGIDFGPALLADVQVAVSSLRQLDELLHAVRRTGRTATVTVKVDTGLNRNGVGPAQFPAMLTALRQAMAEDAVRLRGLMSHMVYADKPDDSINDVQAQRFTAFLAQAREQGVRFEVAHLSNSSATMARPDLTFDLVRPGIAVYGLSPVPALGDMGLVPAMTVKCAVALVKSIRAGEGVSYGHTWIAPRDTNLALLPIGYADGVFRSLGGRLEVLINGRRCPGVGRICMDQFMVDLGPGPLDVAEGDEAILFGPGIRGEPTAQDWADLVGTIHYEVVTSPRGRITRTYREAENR

[6] = target: T1, D-alanine--D-alanine ligase (Mycobacterium tuberculosis); assay: Inhibition of D-alanine-D-alanine ligase in Mycobacterium tuberculosis H37Rv assessed as inhibition of denovo D-Alanyl-D-alanine synthesis at 2 times MIC preincubated for 16 hrs followed L-Ala-[13C]-[3H] addition measured over 8 hrs by LC-MS/MS analysis
[7] = target: T1, D-alanine--D-alanine ligase (Mycobacterium tuberculosis); assay: Inhibition of D-alanine-D-alanine ligase in Mycobacterium tuberculosis H37Rv assessed as inhibition of denovo D-Alanyl-D-alanine synthesis at MIC preincubated for 16 hrs followed by L-Ala-[13C]-[3H] addition measured over 8 hrs by LC-MS/MS analysis
[8] = system: Mycobacterium tuberculosis; assay: Reduction in intracellular total Alanine pool size in Mycobacterium tuberculosis H37Rv at 0.25 to 5 times MIC by filter-based technique; type: functional, organism-based
[9] = target: T1, D-alanine--D-alanine ligase (Mycobacterium tuberculosis); assay: Inhibition of D-alanine-D-alanine ligase in Mycobacterium tuberculosis H37Rv assessed as depletion in D-Alanyl-D-alanine level preincubated for 16 hrs measured post 24 hrs of compound washout
[10] = system: Mycobacterium tuberculosis; assay: Antimycobacterial activity against Mycobacterium tuberculosis H37Rv at 0.25 to 16 times MIC after 7 days in presence of L-Alanine; type: functional, organism-based
[11] = system: Mycobacterium tuberculosis; assay: Antimycobacterial activity against Mycobacterium tuberculosis H37Rv at 0.25 to 16 times MIC after 7 days in presence of D-Alanine; type: functional, organism-based
[12] = system: Mycobacterium tuberculosis; assay: Reduction in intracellular total Alanine pool size in Mycobacterium tuberculosis H37Rv at MIC by filter-based mass spectrometry technique; type: functional, organism-based
[13] = system: Mycobacterium tuberculosis; assay: Reduction in intracellular dipeptide D-alanyl-D-alanine pool size in Mycobacterium tuberculosis H37Rv at MIC by filter-based mass spectrometry technique; type: functional, organism-based

For `CN[C@@H]1[C@H](O[C@H]2[C@H](O[C@H]3[C@H](O)[C@@H](O)[C@H](N=C(N)N)[C@@H](O)[C@@H]3N=C(N)N)O[C@@H](C)[C@]2(O)C=O)O[C@@H](CO)[C@H](O)[C@H]1O`, the Activity [1] was “inactive”.

For `N[C@@H]1CON=C1O` [CYCLOSERINE], the remaining at 16 h [2] was < 10%.

For `N[C@@H]1CONC1=O` [CYCLOSERINE], the Ratio [3] was 2, the Activity [4] was “inactive” and the inhibition [5] was “inactive”. For the same compound, the inhibition [6] was “Active”, the inhibition [7] was “Active” and the Activity [8] was “Active”. For the same compound, the Activity [1] was “Dose-dependent effect”, the inhibition [9] was “Dose-dependent effect” and the Activity [10] was “Active”. For the same compound, the Activity [11] was “inactive”.

In the case of `N[C@H]1CONC1=O` [LEVCYCLOSERINE], the Ratio [3] is reported as 4, the Activity [12] is reported as “Active” and the Activity [13] is reported as “Active”. For the same compound, the Activity [10] was “inactive” and the Activity [11] was “inactive”.
